{"source": "EPA's ToxRefDB 2", "key": {"rat [1]": {"test_system": "rat", "settings": "Fertility (Segment I), Oral, Gavage/Intubation, dose end: 1 generation"}, "rat [2]": {"test_system": "rat", "settings": "Fertility (Segment I), Oral, Gavage/Intubation, dose end: 1 generation", "remark": "listed apart in the source"}, "rat [3]": {"test_system": "rat", "settings": "Prenatal developmental toxicity study, Oral, Gavage/Intubation, dose end: 18 GD"}, "rabbit": {"test_system": "rabbit", "settings": "Prenatal developmental toxicity study, himalayan, Inhalation, Whole-Body, dose end: 29 GD"}, "rat [4]": {"test_system": "rat", "settings": "Prenatal developmental toxicity study, wistar, Inhalation, Whole-Body, dose end: 15 GD"}, "rat [5]": {"test_system": "rat", "settings": "Multigenerational reproductive toxicity study, sprague dawley, Oral, Feed, dose end: 2 generation"}, "[6]": {"settings": "group: maternal, reproductive / reproductive performance / estrous cycle / abnormal + reproductive / reproductive performance / estrous cycle / corpora lutea…"}, "[7]": {"settings": "group: parental, systemic / in life observation / clinical signs / alopecia"}, "[8]": {"settings": "group: parental, systemic / in life observation / clinical signs / alopecia + systemic / in life observation / body weight / body weight + systemic / in life…"}, "[9]": {"settings": "group: maternal, reproductive / reproductive performance / fertility / fertility + reproductive / reproductive performance / pregnancy index / pregnancy …"}, "[10]": {"settings": "group: parental, systemic / in life observation / body weight / body weight + systemic / in life observation / clinical signs / body surface staining + …"}, "[11]": {"settings": "group: parental, systemic / in life observation / clinical signs / convulsions"}, "[12]": {"settings": "group: developmental, developmental / developmental malformation / eye / microphthalmia + developmental / developmental malformation / general / situs inversus + …"}, "[13]": {"settings": "group: maternal, reproductive / reproductive performance / postimplantation loss / postimplantation loss + reproductive / reproductive performance / …"}, "[14]": {"settings": "group: developmental, developmental / developmental malformation / heart / [other] + developmental / developmental malformation / limb / [other]"}, "[15]": {"settings": "group: maternal, systemic / in life observation / mortality / mortality"}, "[16]": {"settings": "group: developmental, developmental / developmental malformation / bone / incomplete ossification + developmental / developmental malformation / bone / …"}, "[17]": {"settings": "group: developmental, developmental / developmental malformation / bone / malpositioned"}, "[18]": {"settings": "group: offspring, systemic / in life observation / body weight / offspring (pup) weight"}, "[19]": {"settings": "group: parental, systemic / pathology microscopic / stomach / proliferation"}}, "data": [{"smiles": "O=C(N[C@H]1CN2CCC1CC2)c1cc2ccoc2cn1", "values": [{"measurement": "LEL", "setting": "rat [1]; [6]", "value": 150, "unit": "mg/kg/day"}, {"measurement": "LOAEL", "setting": "rat [1]; [6]", "value": "> 150", "unit": "mg/kg/day"}, {"measurement": "NEL", "setting": "rat [1]; [6]", "value": 50, "unit": "mg/kg/day"}, {"measurement": "NOAEL", "setting": "rat [1]; [6]", "value": "≥ 150", "unit": "mg/kg/day"}, {"measurement": "LEL", "setting": "rat [1]; [7]", "value": 5, "unit": "mg/kg/day"}, {"measurement": "NEL", "setting": "rat [1]; [7]", "value": "< 5", "unit": "mg/kg/day"}, {"measurement": "LOAEL", "setting": "rat [1]; [8]", "value": "> 150", "unit": "mg/kg/day"}, {"measurement": "NOAEL", "setting": "rat [1]; [8]", "value": "≥ 150", "unit": "mg/kg/day"}, {"measurement": "LEL", "setting": "rat [2]; [9]", "value": 150, "unit": "mg/kg/day"}, {"measurement": "LOAEL", "setting": "rat [2]; [9]", "value": "> 175", "unit": "mg/kg/day"}, {"measurement": "NEL", "setting": "rat [2]; [9]", "value": 75, "unit": "mg/kg/day"}, {"measurement": "NOAEL", "setting": "rat [2]; [9]", "value": "≥ 175", "unit": "mg/kg/day"}, {"measurement": "LOAEL", "setting": "rat [2]; [10]", "value": "> 175", "unit": "mg/kg/day"}, {"measurement": "NOAEL", "setting": "rat [2]; [10]", "value": "≥ 175", "unit": "mg/kg/day"}, {"measurement": "LEL", "setting": "rat [2]; [11]", "value": 7, "unit": "mg/kg/day"}, {"measurement": "NEL", "setting": "rat [2]; [11]", "value": "< 7", "unit": "mg/kg/day"}, {"measurement": "LOAEL", "setting": "rat [3]; [12]", "value": "> 150", "unit": "mg/kg/day"}, {"measurement": "NOAEL", "setting": "rat [3]; [12]", "value": "≥ 150", "unit": "mg/kg/day"}, {"measurement": "LEL", "setting": "rat [3]; group: developmental, developmental / developmental malformation / great vessels / [other]", "value": 20, "unit": "mg/kg/day"}, {"measurement": "LOAEL", "setting": "rat [3]; [13]", "value": "> 150", "unit": "mg/kg/day"}, {"measurement": "NEL", "setting": "rat [3]; [13]", "value": 5, "unit": "mg/kg/day"}, {"measurement": "NOAEL", "setting": "rat [3]; [13]", "value": "≥ 150", "unit": "mg/kg/day"}, {"measurement": "LEL", "setting": "rat [3]; group: maternal, systemic / in life observation / clinical signs / alopecia", "value": 20, "unit": "mg/kg/day"}]}, {"smiles": "CC(C)CCO", "note": "[Isopentyl alcohol]", "values": [{"measurement": "LEL", "setting": "rabbit; [14]", "value": 0.5, "unit": "ppm"}, {"measurement": "LOAEL", "setting": "rabbit; [14]", "value": "> 10", "unit": "ppm"}, {"measurement": "NEL", "setting": "rabbit; [14]", "value": "< 0.5", "unit": "ppm"}, {"measurement": "NOAEL", "setting": "rabbit; [14]", "value": "≥ 10", "unit": "ppm"}, {"measurement": "LEL", "setting": "rabbit; [15]", "value": 2.5, "unit": "ppm"}, {"measurement": "LOAEL", "setting": "rabbit; [15]", "value": 2.5, "unit": "ppm"}, {"measurement": "NEL", "setting": "rabbit; [15]", "value": 0.5, "unit": "ppm"}, {"measurement": "NOAEL", "setting": "rabbit; [15]", "value": 0.5, "unit": "ppm"}, {"measurement": "LOAEL", "setting": "rat [4]; [16]", "value": "> 10", "unit": "ppm"}, {"measurement": "NOAEL", "setting": "rat [4]; [16]", "value": "≥ 10", "unit": "ppm"}, {"measurement": "LEL", "setting": "rat [4]; [17]", "value": 0.5, "unit": "ppm"}, {"measurement": "NEL", "setting": "rat [4]; [17]", "value": "< 0.5", "unit": "ppm"}, {"measurement": "LEL", "setting": "rat [4]; [15]", "value": 0.5, "unit": "ppm"}, {"measurement": "LOAEL", "setting": "rat [4]; [15]", "value": "> 10", "unit": "ppm"}, {"measurement": "NEL", "setting": "rat [4]; [15]", "value": "< 0.5", "unit": "ppm"}, {"measurement": "NOAEL", "setting": "rat [4]; [15]", "value": "≥ 10", "unit": "ppm"}]}, {"smiles": "O=C([O-])C1C2CCC(O2)C1C(=O)[O-].[Na+].[Na+]", "note": "(configuration not stated) [Disodium endothal]", "values": [{"measurement": "LEL", "setting": "rat [5]; [18]", "value": 10.9, "unit": "mg/kg/day"}, {"measurement": "LOAEL", "setting": "rat [5]; [18]", "value": 77.1, "unit": "mg/kg/day"}, {"measurement": "NEL", "setting": "rat [5]; [18]", "value": 2.1, "unit": "mg/kg/day"}, {"measurement": "NOAEL", "setting": "rat [5]; [18]", "value": 10.9, "unit": "mg/kg/day"}, {"measurement": "LEL", "setting": "rat [5]; [19]", "value": 2.1, "unit": "mg/kg/day"}, {"measurement": "LOAEL", "setting": "rat [5]; [19]", "value": 2.1, "unit": "mg/kg/day"}, {"measurement": "NEL", "setting": "rat [5]; [19]", "value": "< 2.1", "unit": "mg/kg/day"}, {"measurement": "NOAEL", "setting": "rat [5]; [19]", "value": "< 2.1", "unit": "mg/kg/day"}]}]}
